Test results: PubChem BioAssay AID2060499 (Molecular Pharmacology Branch, DTP, NCI, 2025)

Test system: 777334-354-R2-J4-PDC tumor spheroids with HUVEC/MSC, viability
Assay: Anticancer human tumor 777334-354-R2-J4-PDC patient-derived pancreatic adenocarcinoma cell line growth inhibition [GQUAD]
Conditions: for IC50: curve of first compound; for viability, T/C: stronger effect = lower value
Method in brief: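 Multi-cell-type spheroids of tumor cells with HUVEC and mesenchymal stem cells, treated with drug combinations. Concentrations descend in half-log steps from near clinical Cmax, or from 10 microM where Cmax is unknown; viability read-out.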

[1] = second compound 0.0316 µM, first compound 0.000999 µM
[2] = second compound 0.0316 µM, first compound 0.00316 µM
[3] = second compound 0.0316 µM, first compound 0.00999 µM
[4] = second compound 0.0316 µM, first compound 0.0316 µM
[5] = second compound 0.0316 µM, first compound 0.0999 µM
[6] = second compound 0.0316 µM, first compound 0.316 µM
[7] = second compound 0.1 µM, first compound 0.000999 µM
[8] = second compound 0.1 µM, first compound 0.00316 µM
[9] = second compound 0.1 µM, first compound 0.00999 µM
[10] = second compound 0.1 µM, first compound 0.0316 µM
[11] = second compound 0.1 µM, first compound 0.0999 µM
[12] = second compound 0.1 µM, first compound 0.316 µM
[13] = second compound 0.316 µM, first compound 0.000999 µM
[14] = second compound 0.316 µM, first compound 0.00316 µM
[15] = second compound 0.316 µM, first compound 0.00999 µM
[16] = second compound 0.316 µM, first compound 0.0316 µM
[17] = second compound 0.316 µM, first compound 0.0999 µM
[18] = second compound 0.316 µM, first compound 0.316 µM
[19] = second compound 1 µM, first compound 0.000999 µM
[20] = second compound 1 µM, first compound 0.00316 µM
[21] = second compound 1 µM, first compound 0.00999 µM
[22] = second compound 1 µM, first compound 0.0316 µM
[23] = second compound 1 µM, first compound 0.0999 µM
[24] = second compound 1 µM, first compound 0.316 µM
[25] = second compound 3.16 µM, first compound 0.000999 µM
[26] = second compound 3.16 µM, first compound 0.00316 µM
[27] = second compound 3.16 µM, first compound 0.00999 µM
[28] = second compound 3.16 µM, first compound 0.0316 µM
[29] = second compound 3.16 µM, first compound 0.0999 µM
[30] = second compound 3.16 µM, first compound 0.316 µM
[31] = second compound 10 µM, first compound 0.000999 µM
[32] = second compound 10 µM, first compound 0.00316 µM
[33] = second compound 10 µM, first compound 0.00999 µM
[34] = second compound 10 µM, first compound 0.0316 µM
[35] = second compound 10 µM, first compound 0.0999 µM
[36] = second compound 10 µM, first compound 0.316 µM
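Note: spheroids exposed to compounds for 7 days before readout.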

CC[C@@]1(O)C(=O)OCc2c1cc1n(c2=O)Cc2cc3c(CN(C)C)c(O)ccc3nc2-1 + Cc1[nH]c2ccc(F)cc2c1-c1nc2c3cccnc3c3ncccc3c2[nH]1
IC50 (second compound 0.0316 µM): 218 nM | IC50 (second compound 0.1 µM): 191 nM | IC50 (second compound 0.316 µM): 200 nM | IC50 (second compound 1 µM): 124 nM | IC50 (second compound 3.16 µM): < 0.999 nM | IC50 (second compound 10 µM): < 0.999 nM | viability, T/C [1]: 103% | viability, T/C [2]: 102% | viability, T/C [3]: 104% | viability, T/C [4]: 82.3% | viability, T/C [5]: 69.6% | viability, T/C [6]: 41.3% | viability, T/C [7]: 100% | viability, T/C [8]: 97.1% | viability, T/C [9]: 111% | viability, T/C [10]: 96% | viability, T/C [11]: 61% | viability, T/C [12]: 41.5% | viability, T/C [13]: 89.5% | viability, T/C [14]: 95.5% | viability, T/C [15]: 96.4% | viability, T/C [16]: 85.5% | viability, T/C [17]: 61.7% | viability, T/C [18]: 42.4% | viability, T/C [19]: 79.3% | viability, T/C [20]: 83.6% | viability, T/C [21]: 85.9% | viability, T/C [22]: 83.6% | viability, T/C [23]: 53.9% | viability, T/C [24]: 33% | viability, T/C [25]: 34.2% | viability, T/C [26]: 41.7% | viability, T/C [27]: 35.7% | viability, T/C [28]: 28.4% | viability, T/C [29]: 15.9% | viability, T/C [30]: 14.6% | viability, T/C [31]: 28.4% | viability, T/C [32]: 38.5% | viability, T/C [33]: 30.7% | viability, T/C [34]: 20.2% | viability, T/C [35]: 13.3% | viability, T/C [36]: 11.3%

CCc1c2c(nc3ccc(O)cc13)-c1cc3c(c(=O)n1C2)COC(=O)[C@]3(O)CC + Cc1[nH]c2ccc(F)cc2c1-c1nc2c3cccnc3c3ncccc3c2[nH]1
IC50 (second compound 0.0316 µM): 5.58 nM | IC50 (second compound 0.1 µM): 6.14 nM | IC50 (second compound 0.316 µM): 5.57 nM | IC50 (second compound 1 µM): 3.44 nM | IC50 (second compound 3.16 µM): < 0.999 nM | IC50 (second compound 10 µM): < 0.999 nM | viability, T/C [1]: 85.3% | viability, T/C [2]: 54.5% | viability, T/C [3]: 44.7% | viability, T/C [4]: 27.3% | viability, T/C [5]: 15% | viability, T/C [6]: 9.55% | viability, T/C [7]: 92.8% | viability, T/C [8]: 60.4% | viability, T/C [9]: 45% | viability, T/C [10]: 22.2% | viability, T/C [11]: 14.7% | viability, T/C [12]: 9.29% | viability, T/C [13]: 83.6% | viability, T/C [14]: 60.9% | viability, T/C [15]: 38.2% | viability, T/C [16]: 26.4% | viability, T/C [17]: 18.1% | viability, T/C [18]: 11.1% | viability, T/C [19]: 70.7% | viability, T/C [20]: 51.1% | viability, T/C [21]: 34.9% | viability, T/C [22]: 23.9% | viability, T/C [23]: 16.9% | viability, T/C [24]: 8.25% | viability, T/C [25]: 34.4% | viability, T/C [26]: 20.1% | viability, T/C [27]: 15.9% | viability, T/C [28]: 9.11% | viability, T/C [29]: 7.06% | viability, T/C [30]: 4.83% | viability, T/C [31]: 26% | viability, T/C [32]: 17.6% | viability, T/C [33]: 13.1% | viability, T/C [34]: 7.08% | viability, T/C [35]: 6.95% | viability, T/C [36]: 5.09%
